Results published in patent US6576625B2, “Targeted vesicular constructs for cytoprotection and treatment of H. pylori infections” (Panacea Biotic Limited, priority 2001, dated 2003).

System: NSAID induced, gastric lesions followed by colonization of gastric mucosa by orally delivered H. felis
Experiment: Ulcer healing (cytorepairing and cytoprotective performance) in rats, Sakita's classification
Assay type: in vivo, albino male rats of Wistar origin
Conditions: at the same MIC90 level
Description: The cytorepairing and cytoprotective performance of the prepared liposomes was assessed in albino male rats of Wistar origin. The level of ulcer healing (%RUh) following the administration of liposomes against the NSAID induced, gastric lesions followed by colonization of gastric mucosa by orally delivered H. felis suspension culture was studied. The degree of ulceration and rate of ulcer healing was determined following the classification of Sakita (Sakita, T., Oguro, Y., Miwa, T., 1981, In: Handbook of Intestinal Endoscopy 1 ed., Tokyo: Chugi-Igakusha, 375-396) and Tamada (Tamada, F., 1992, In: Diagnostic and Therapeutic Gastrointestinal Endoscopy, KSH Hospital, 23-25), both incorporated herein by reference. Histopathological examination of the gastric mucosa was done using phase contrast research microscope (Leitz-Biomed, Germany).

CC1(C)S[C@@H]2[C@H](NC(=O)[C@H](N)c3ccc(O)cc3)C(=O)N2[C@H]1C(=O)O [amoxycillin, Amoxycillin]
recovery (ulcer healing): 33.3%
